Patent US20240150377A1, “MODULATORS OF CYSTIC FIBROSIS TRANSMEMBRANE CONDUCTANCE REGULATOR” (VERTEX PHARMACEUTICALS INCORPORATED, priority 2020, published 2024)
Like-named read-outs stand apart in the source and are kept apart here.

Molecular target: T1, CFTR (Homo sapiens, UniProt P13569, DEL508-508)
T1 construct: endogenous in cells; host or cells: primary human bronchial epithelial cells from CF subjects (F508del/MF-HBE), differentiated at air-liquid interface
Test: HBE assay: Ussing chamber assay of CFTR-mediated short-circuit currents
Format: cell-based
Conditions: for EC50: read-out: HBE EC50
In short: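 CFTR-mediated Isc (μA/cm²) equals the peak response to apical 20 μM forskolin minus the residual after a 20 μM each BPO/GlyH-101/CFTR inhibitor 172 cocktail, recorded in Ussing chambers at Vhold 0 mV, 37 °C, pH 7.4, with 30 μM apical amiloride. Cells were F508del/MF HBE cultures preincubated 18-24 h with corrector (concentration range or 10 μM) plus 1 μM ivacaftor in 20% human serum.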

[1] = Table 10, read-out: HBE Max activity (%)
[2] = Table 13, read-out: HBE Max Activity (%)
[3] = Table 12, read-out: HBE Max Activity (%)
[4] = Table 12, read-out: HBE Activity at 10 μM (%)
[5] = Table 11, read-out: HBE Max Activity (%)

T1 sequence (P13569 with tags, fused parts or gaps DEL508-508): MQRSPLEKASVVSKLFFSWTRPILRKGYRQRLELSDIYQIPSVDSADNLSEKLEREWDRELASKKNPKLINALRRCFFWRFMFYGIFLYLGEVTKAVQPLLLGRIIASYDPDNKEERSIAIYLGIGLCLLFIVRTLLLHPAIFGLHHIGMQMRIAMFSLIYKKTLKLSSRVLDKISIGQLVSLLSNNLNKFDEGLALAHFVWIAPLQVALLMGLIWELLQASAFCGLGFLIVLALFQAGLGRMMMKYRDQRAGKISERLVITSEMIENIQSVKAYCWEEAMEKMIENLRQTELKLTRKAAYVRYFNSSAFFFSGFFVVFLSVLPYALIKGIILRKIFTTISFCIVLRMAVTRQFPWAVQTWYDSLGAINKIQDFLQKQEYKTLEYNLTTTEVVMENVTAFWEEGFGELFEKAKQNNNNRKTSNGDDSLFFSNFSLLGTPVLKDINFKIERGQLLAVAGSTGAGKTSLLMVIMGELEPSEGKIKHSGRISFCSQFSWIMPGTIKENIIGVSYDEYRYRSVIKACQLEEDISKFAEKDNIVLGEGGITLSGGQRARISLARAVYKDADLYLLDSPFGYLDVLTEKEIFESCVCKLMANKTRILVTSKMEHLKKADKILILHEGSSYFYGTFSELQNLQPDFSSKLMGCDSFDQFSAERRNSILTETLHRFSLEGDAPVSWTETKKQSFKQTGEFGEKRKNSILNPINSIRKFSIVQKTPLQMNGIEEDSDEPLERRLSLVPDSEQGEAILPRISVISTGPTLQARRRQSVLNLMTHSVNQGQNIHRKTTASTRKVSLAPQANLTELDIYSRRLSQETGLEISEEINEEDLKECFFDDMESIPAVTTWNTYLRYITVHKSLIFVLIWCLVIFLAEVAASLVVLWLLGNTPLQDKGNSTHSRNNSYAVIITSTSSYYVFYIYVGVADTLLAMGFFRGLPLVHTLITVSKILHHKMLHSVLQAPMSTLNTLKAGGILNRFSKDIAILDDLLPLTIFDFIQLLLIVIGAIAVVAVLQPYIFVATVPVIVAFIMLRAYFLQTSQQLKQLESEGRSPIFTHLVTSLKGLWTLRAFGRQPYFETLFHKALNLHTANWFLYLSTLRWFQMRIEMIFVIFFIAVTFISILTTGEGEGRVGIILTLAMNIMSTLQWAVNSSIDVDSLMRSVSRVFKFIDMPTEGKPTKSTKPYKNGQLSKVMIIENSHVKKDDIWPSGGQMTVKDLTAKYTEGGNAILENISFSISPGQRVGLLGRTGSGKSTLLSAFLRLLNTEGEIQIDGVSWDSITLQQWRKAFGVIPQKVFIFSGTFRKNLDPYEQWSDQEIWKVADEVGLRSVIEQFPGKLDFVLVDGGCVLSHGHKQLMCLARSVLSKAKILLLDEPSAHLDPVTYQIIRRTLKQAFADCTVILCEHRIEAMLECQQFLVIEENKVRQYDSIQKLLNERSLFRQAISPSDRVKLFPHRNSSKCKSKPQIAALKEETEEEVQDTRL

SMILES: Cc1cccc(C)c1-c1cc2nc(n1)NS(=O)(=O)c1cccc(c1)C(=O)N(CC1CCCCC1)[C@H](CC(C)(C)C)CO2 [Compound 832]
- activation at 10 µM (Table 10, read-out: HBE activity at 10 (μM) (%)): > 60%

SMILES: Cc1cccc(C)c1-c1cc2nc(n1)NS(=O)(=O)c1cccc(c1)C(=O)N(CC1CCCCO1)[C@H](CC(C)(C)C)CO2 (stereo partly shown) [Compound 833]
- Emax [1]: > 60%

SMILES: Cc1cccc(C)c1-c1cc2nc(n1)NS(=O)(=O)c1cccc(c1)C(=O)N(CC1CCCO1)[C@H](CC(C)(C)C)CO2 (stereo partly shown) [Compound 835]
- EC50 (Table 10): < 1 µM
- Emax [1]: > 60%

SMILES: Cc1cccc(C)c1-c1nc2nc(c1C)OC[C@@H](CC(C)(C)C)N(CC1CCCO1)C(=O)c1cccc(c1)S(=O)(=O)N2 (stereo partly shown) [Compound 836]
- Emax [1]: > 60%

SMILES: Cc1cccc(C)c1-c1cc2nc(n1)NS(=O)(=O)c1cccc(c1)C(=O)N(Cc1ncc(N3CC4(CCOCC4)C3)cn1)[C@H](CC(C)(C)C)CO2 [Compound 866]
- EC50 (Table 13): < 1 µM
- Emax [2]: > 60%

SMILES: Cc1cccc(C)c1-c1cc2nc(n1)NS(=O)(=O)c1cccc(c1)C(=O)N(Cc1ncc(N3CC4(COC4)C3)cn1)[C@H](CC(C)(C)C)CO2 [Compound 867]
- EC50 (Table 13): < 1 µM
- Emax [2]: > 60%

SMILES: COC1CC2(C1)CN(c1cnc(CN3C(=O)c4cccc(c4)S(=O)(=O)Nc4nc(cc(-c5c(C)cccc5C)n4)OC[C@H]3CC(C)(C)C)nc1)C2 [Compound 868]
- EC50 (Table 13): < 1 µM
- Emax [2]: > 60%

SMILES: Cc1cccc(C)c1-c1cc2nc(n1)NS(=O)(=O)c1cccc(c1)C(=O)N(Cc1ncc(N3CC4(C3)CC(C)(C)C4)cn1)[C@H](CC(C)(C)C)CO2 [Compound 869]
- EC50 (Table 13): < 1 µM
- Emax [2]: > 60%

SMILES: COC1(C)CCN(c2cnc(CN3C(=O)c4cccc(c4)S(=O)(=O)Nc4nc(cc(-c5c(C)cccc5C)n4)OC[C@H]3CC(C)(C)C)nc2)CC1 [Compound 870]
- activation at 10 µM (Table 13, read-out: HBE Activity at 10 μM (%)): > 600%
- EC50 (Table 13): < 1 µM
- Emax [2]: > 60%

SMILES: Cc1cccc(C)c1-c1cc2nc(n1)NS(=O)(=O)c1cccc(c1)C(=O)N(Cc1cccc(C(C)C(C)C)n1)[C@H](CC(C)(C)C)CO2 (stereo partly shown) [Compound 871]
- EC50 (Table 12): < 1 µM
- Emax [3]: > 60%

SMILES: Cc1cccc(C)c1-c1cc2nc(n1)NS(=O)(=O)c1cccc(c1)C(=O)N(Cc1cccc(N3CCOC(C)(C)C3)n1)[C@H](CC(C)(C)C)CO2 [Compound 872]
- EC50 (Table 12): < 1 µM
- Emax [3]: > 60%

SMILES: Cc1cccc(C)c1-c1cc2nc(n1)NS(=O)(=O)c1cccc(c1)C(=O)N(Cc1ncc(N3CC4CCC3C4)cn1)[C@H](CC(C)(C)C)CO2 (stereo partly shown) [Compound 874]
- EC50 (Table 12): < 1 µM
- Emax [3]: > 60%

SMILES: Cc1cccc(C)c1-c1cc2nc(n1)NS(=O)(=O)c1cccc(c1)C(=O)N(Cc1ncc(N3CCC(C(C)(C)C)C3)cn1)[C@H](CC(C)(C)C)CO2 (stereo partly shown) [Compound 875]
- EC50 (Table 12): < 1 µM
- Emax [3]: > 60%

SMILES: COC1CN(c2cccc(CN3C(=O)c4cccc(c4)S(=O)(=O)Nc4nc(cc(-c5c(C)cccc5C)n4)OC[C@H]3CC(C)(C)C)n2)C(C)(C)C1 (stereo partly shown) [Compound 876]
- EC50 (Table 12): < 1 µM
- Emax [3]: > 60%

SMILES: Cc1cccc(C)c1-c1cc2nc(n1)NS(=O)(=O)c1cccc(c1)C(=O)N(Cc1cccc(N3CC(C(C)(C)C)CC3(C)C)n1)[C@H](CC(C)(C)C)CO2 (stereo partly shown) [Compound 877]
- activation at 10 µM [4]: > 600%

SMILES: Cc1cccc(C)c1-c1cc2nc(n1)NS(=O)(=O)c1cccc(c1)C(=O)N(Cc1cccc3ccnn13)[C@H](CC(C)(C)C)CO2 [Compound 878]
- activation at 10 µM [4]: > 600%

SMILES: Cc1cccc(C)c1-c1cc2nc(n1)NS(=O)(=O)c1cccc(c1)C(=O)N(Cc1cnc3ccccn13)[C@H](CC(C)(C)C)CO2 [Compound 879]
- activation at 10 µM [4]: > 600%

SMILES: Cc1cccc(C)c1-c1cc2nc(n1)NS(=O)(=O)c1cccc(c1)C(=O)N(Cc1ccc(OC(C)C)nc1)[C@H](CC(C)(C)C)CO2 [Compound 880]
- activation at 10 µM [4]: > 600%

SMILES: Cc1cccc(C)c1-c1cc2nc(n1)NS(=O)(=O)c1cccc(c1)C(=O)N(Cc1cncc(N(C)C(C)C)n1)[C@H](CC(C)(C)C)CO2 [Compound 881]
- EC50 (Table 12): < 1 µM
- Emax [3]: > 60%

SMILES: Cc1cccc(C)c1-c1cc2nc(n1)NS(=O)(=O)c1cccc(c1)C(=O)N(Cc1ccc(C3CCCCC3)nc1)[C@H](CC(C)(C)C)CO2 [Compound 882]
- activation at 10 µM [4]: > 600%

SMILES: Cc1cccc(C)c1-c1cc2nc(n1)NS(=O)(=O)c1cccc(c1)C(=O)N(Cc1ccc(N3CCC(C)(C)C3)nc1)[C@H](CC(C)(C)C)CO2 [Compound 883]
- EC50 (Table 12): < 1 µM
- Emax [3]: > 60%

SMILES: COc1cncc(CN2C(=O)c3cccc(c3)S(=O)(=O)Nc3nc(cc(-c4c(C)cccc4C)n3)OC[C@H]2CC(C)(C)C)n1 [Compound 884]
- EC50 (Table 11): < 1 µM
- Emax [5]: > 60%

SMILES: Cc1cccc(C)c1-c1cc2nc(n1)NS(=O)(=O)c1cccc(c1)C(=O)N(Cc1cncc(N(C)C)n1)[C@H](CC(C)(C)C)CO2 [Compound 885]
- EC50 (Table 11): < 1 µM
- Emax [5]: > 60%

SMILES: Cc1cccc(C)c1-c1cc2nc(n1)NS(=O)(=O)c1cccc(c1)C(=O)N(Cc1cc(C(C)(C)C)ccn1)[C@H](CC(C)(C)C)CO2 [Compound 886]
- EC50 (Table 11): < 1 µM
- Emax [5]: > 60%

SMILES: COCCN(C)c1ccnc(CN2C(=O)c3cccc(c3)S(=O)(=O)Nc3nc(cc(-c4c(C)cccc4C)n3)OC[C@H]2CC(C)(C)C)c1 [Compound 887]
- EC50 (Table 11): < 1 µM
- Emax [5]: > 60%

SMILES: Cc1cccc(C)c1-c1cc2nc(n1)NS(=O)(=O)c1cccc(c1)C(=O)N(Cc1cc(N3CCCCC3)ccn1)[C@H](CC(C)(C)C)CO2 [Compound 888]
- EC50 (Table 11): < 1 µM
- Emax [5]: > 60%

SMILES: Cc1cccc(C)c1-c1cc2nc(n1)NS(=O)(=O)c1cccc(c1)C(=O)N(Cc1cnc(C3CCOCC3)cn1)[C@H](CC(C)(C)C)CO2 [Compound 889]
- EC50 (Table 11): 1 to 3 µM
- Emax [5]: > 60%

SMILES: Cc1cccc(C)c1-c1cc2nc(n1)NS(=O)(=O)c1cccc(c1)C(=O)N(Cc1cnc(C3CCCC3)cn1)[C@H](CC(C)(C)C)CO2 [Compound 890]
- EC50 (Table 11): 3 to 30 µM
- Emax [5]: > 60%

SMILES: Cc1cccc(C)c1-c1cc2nc(n1)NS(=O)(=O)c1cccc(c1)C(=O)N(Cc1cnc(C3CCCCC3)cn1)[C@H](CC(C)(C)C)CO2 [Compound 891]
- EC50 (Table 11): 1 to 3 µM
- Emax [5]: > 60%

SMILES: Cc1cccc(C)c1-c1cc2nc(n1)NS(=O)(=O)c1cccc(c1)C(=O)N(Cc1cncc(C(C)C)n1)[C@H](CC(C)(C)C)CO2 [Compound 892]
- EC50 (Table 11): < 1 µM
- Emax [5]: > 60%

SMILES: Cc1cccc(C)c1-c1cc2nc(n1)NS(=O)(=O)c1cccc(c1)C(=O)N(Cc1cnc(C(C)C)cn1)[C@H](CC(C)(C)C)CO2 [Compound 893]
- EC50 (Table 11): < 1 µM
- Emax [5]: > 60%

SMILES: Cc1cccc(C)c1-c1cc2nc(n1)NS(=O)(=O)c1cccc(c1)C(=O)N(Cc1cncc(OC(C)C)n1)[C@H](CC(C)(C)C)CO2 [Compound 894]
- EC50 (Table 11): < 1 µM
- Emax [5]: > 60%

SMILES: COCCN(C)c1cncc(CN2C(=O)c3cccc(c3)S(=O)(=O)Nc3nc(cc(-c4c(C)cccc4C)n3)OC[C@H]2CC(C)(C)C)n1 [Compound 895]
- EC50 (Table 11): < 1 µM
- Emax [5]: > 60%

SMILES: Cc1cccc(C)c1-c1cc2nc(n1)NS(=O)(=O)c1cccc(c1)C(=O)N(Cc1cncc(N3CCOCC3)n1)[C@H](CC(C)(C)C)CO2 [Compound 896]
- EC50 (Table 11): < 1 µM
- Emax [5]: > 60%

SMILES: Cc1cccc(C)c1-c1cc2nc(n1)NS(=O)(=O)c1cccc(c1)C(=O)N(Cc1cnc(OC(C)C)cn1)[C@H](CC(C)(C)C)CO2 [Compound 897]
- EC50 (Table 11): < 1 µM
- Emax [5]: > 60%

SMILES: Cc1cccc(C)c1-c1cc2nc(n1)NS(=O)(=O)c1cccc(c1)C(=O)N(Cc1cnc(N(C)CC(C)(C)C)cn1)[C@H](CC(C)(C)C)CO2 [Compound 899]
- EC50 (Table 11): < 1 µM
- Emax [5]: > 60%

SMILES: COCCN(C)c1cnc(CN2C(=O)c3cccc(c3)S(=O)(=O)Nc3nc(cc(-c4c(C)cccc4C)n3)OC[C@H]2CC(C)(C)C)cn1 [Compound 900]
- EC50 (Table 11): 1 to 3 µM
- Emax [5]: > 60%

SMILES: Cc1cccc(C)c1-c1cc2nc(n1)NS(=O)(=O)c1cccc(c1)C(=O)N(CC1CCOC1)[C@H](CC(C)(C)C)CO2 (stereo partly shown) [Compound 901]
- activation at 10 µM (Table 11, read-out: HBE Activity at 10 μM (%)): > 60%

SMILES: Cc1ccc(C)c(-c2cc3nc(n2)NS(=O)(=O)c2cccc(c2)C(=O)N(Cc2ccc(N4CCCCC4)cn2)[C@H](CC(C)(C)C)CO3)c1C [Compound 902]
- Emax [5]: < 30%

SMILES: COC1CCC(CN2C(=O)c3cccc(c3)S(=O)(=O)Nc3nc(cc(-c4c(C)cccc4C)n3)OC[C@H]2CC(C)(C)C)CC1 (stereo partly shown) [Compound 903]
- EC50 (Table 11): < 1 µM
- Emax [5]: > 60%

SMILES: Cc1cccc(C)c1-c1cc2nc(n1)NS(=O)(=O)c1cccc(c1)C(=O)N(CC1CCC(O)(C(F)(F)F)CC1)[C@H](CC(C)(C)C)CO2 (stereo partly shown) [Compound 904]
- EC50 (Table 10): < 1 µM

SMILES: Cc1cccc(C)c1-c1cc2nc(n1)NS(=O)(=O)c1cccc(c1)C(=O)N(CC1CCC(O)(C(F)(F)F)CC1)[C@H](CC(C)(C)C)CO2 (stereo partly shown) [Compound 905]
- EC50 (Table 10): < 1 µM
- Emax [1]: > 60%

SMILES: Cc1cccc(C)c1-c1cc2nc(n1)NS(=O)(=O)c1cc(n(C)n1)C(=O)N(Cc1ccc(N3CCOCC3)cc1)[C@H](CC(C)(C)C)CO2 [Compound 906]
- EC50 (Table 10): < 1 µM
- Emax [1]: > 60%

SMILES: COC[C@]1(O)CC[C@@H](CN2C(=O)c3cccc(c3)S(=O)(=O)Nc3nc(cc(-c4c(C)cccc4C)n3)OC[C@H]2CC(C)(C)C)CC1 [Compound 907]
- EC50 (Table 10): < 1 µM
- Emax [1]: > 60%

SMILES: Cc1cccc(C)c1-c1cc2nc(n1)NS(=O)(=O)c1cccc(c1)C(=O)N(CC1CCC(O)(CO)CC1)[C@H](CC(C)(C)C)CO2 (stereo partly shown) [Compound 908]
- EC50 (Table 10): < 1 µM
- Emax [1]: > 60%

SMILES: Cc1cccc(C)c1-c1cc2nc(n1)NS(=O)(=O)c1cccc(c1)C(=O)N(C[C@H]1CC[C@@H](N3CCCC3=O)CC1)[C@H](CC(C)(C)C)CO2 [Compound 910]
- EC50 (Table 10): < 1 µM
- Emax [1]: > 60%
